Assay results as given in ChEMBL document CHEMBL1139605, “Novel ketal ligands for the glucocorticoid receptor: in vitro and in vivo activity” (Bioorg Med Chem Lett, 2005).
pEC50, pIC50: −log10 of the molar value. Blank lines part the entries; values can stand above or below the compound they belong to.

How the values were obtained:
A549 [1] = experiment: Effective concentration for inhibition of interleukin-6 in human A549 lung carcinoma cell line using 32% radiolabeled Dexamethasone; assay type: functional, cell-based
Mus musculus [2] = organism: Mus musculus; experiment: Effective concentration required for inhibition of interleukin-6 in mouse thioglycolate-elicited peritoneal exudate cell line using 79% radiolabeled Dexamethasone; assay type: functional
Glucocorticoid receptor [3] = target: T1, Glucocorticoid receptor (Homo sapiens, UniProt P04150); experiment: Inhibition of human glucocorticoid receptor alpha isoform
T1 sequence (P04150 whole entry): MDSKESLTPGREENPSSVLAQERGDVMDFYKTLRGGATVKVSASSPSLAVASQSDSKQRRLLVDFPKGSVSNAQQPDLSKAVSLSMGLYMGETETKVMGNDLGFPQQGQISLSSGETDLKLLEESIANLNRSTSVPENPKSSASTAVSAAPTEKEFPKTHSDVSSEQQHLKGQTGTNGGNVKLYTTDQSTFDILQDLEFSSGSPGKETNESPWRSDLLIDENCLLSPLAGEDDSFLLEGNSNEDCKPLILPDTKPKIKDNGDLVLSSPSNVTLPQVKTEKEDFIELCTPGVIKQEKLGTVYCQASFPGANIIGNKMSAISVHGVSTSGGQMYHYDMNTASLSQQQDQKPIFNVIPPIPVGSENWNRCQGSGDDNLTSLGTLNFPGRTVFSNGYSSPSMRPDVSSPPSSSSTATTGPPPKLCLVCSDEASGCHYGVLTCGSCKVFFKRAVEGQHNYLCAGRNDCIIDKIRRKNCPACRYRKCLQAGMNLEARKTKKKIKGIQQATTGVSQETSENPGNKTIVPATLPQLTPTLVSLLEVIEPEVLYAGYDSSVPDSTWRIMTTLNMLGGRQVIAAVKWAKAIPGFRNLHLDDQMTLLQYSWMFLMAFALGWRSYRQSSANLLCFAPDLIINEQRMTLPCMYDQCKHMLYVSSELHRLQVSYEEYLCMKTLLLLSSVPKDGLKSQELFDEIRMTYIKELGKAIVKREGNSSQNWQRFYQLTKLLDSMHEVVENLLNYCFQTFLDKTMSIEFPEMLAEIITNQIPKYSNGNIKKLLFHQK

A549 [4] = experiment: Effective concentration for inhibition of interleukin-6 in human A549 lung carcinoma cell line using […]% radiolabeled Dexamethasone; assay type: functional, cell-based
Mus musculus [5] = organism: Mus musculus; experiment: Effective concentration required for inhibition of interleukin-6 in mouse thioglycolate-elicited peritoneal exudate cell line using 62% radiolabeled Dexamethasone; assay type: functional
A549 [6] = experiment: Effective concentration for inhibition of interleukin-6 in human A549 lung carcinoma cell line using 75% radiolabeled Dexamethasone; assay type: functional, cell-based
Mus musculus [7] = organism: Mus musculus; experiment: Effective concentration required for interleukin-6 transrepression in peritoneal exudate cells of C57B1/6 mouse using 62% Dexamethasone; assay type: functional, cell-based
Mus musculus [8] = experiment: Inhibition of LPS induced TNF-alpha secretion in mouse at an oral dose of 30 mg/kg relative to that produced by Dexamethasone at a dose of 0.3 mg/kg; assay type: functional
Glucocorticoid receptor [9] = target: T1, Glucocorticoid receptor; experiment: Binding affinity for human glucocorticoid receptor
[10] = target: T2, Mineralocorticoid receptor (Rattus norvegicus, UniProt P22199); experiment: Binding affinity for rat mineralocorticoid receptor
T2 sequence (P22199 whole entry): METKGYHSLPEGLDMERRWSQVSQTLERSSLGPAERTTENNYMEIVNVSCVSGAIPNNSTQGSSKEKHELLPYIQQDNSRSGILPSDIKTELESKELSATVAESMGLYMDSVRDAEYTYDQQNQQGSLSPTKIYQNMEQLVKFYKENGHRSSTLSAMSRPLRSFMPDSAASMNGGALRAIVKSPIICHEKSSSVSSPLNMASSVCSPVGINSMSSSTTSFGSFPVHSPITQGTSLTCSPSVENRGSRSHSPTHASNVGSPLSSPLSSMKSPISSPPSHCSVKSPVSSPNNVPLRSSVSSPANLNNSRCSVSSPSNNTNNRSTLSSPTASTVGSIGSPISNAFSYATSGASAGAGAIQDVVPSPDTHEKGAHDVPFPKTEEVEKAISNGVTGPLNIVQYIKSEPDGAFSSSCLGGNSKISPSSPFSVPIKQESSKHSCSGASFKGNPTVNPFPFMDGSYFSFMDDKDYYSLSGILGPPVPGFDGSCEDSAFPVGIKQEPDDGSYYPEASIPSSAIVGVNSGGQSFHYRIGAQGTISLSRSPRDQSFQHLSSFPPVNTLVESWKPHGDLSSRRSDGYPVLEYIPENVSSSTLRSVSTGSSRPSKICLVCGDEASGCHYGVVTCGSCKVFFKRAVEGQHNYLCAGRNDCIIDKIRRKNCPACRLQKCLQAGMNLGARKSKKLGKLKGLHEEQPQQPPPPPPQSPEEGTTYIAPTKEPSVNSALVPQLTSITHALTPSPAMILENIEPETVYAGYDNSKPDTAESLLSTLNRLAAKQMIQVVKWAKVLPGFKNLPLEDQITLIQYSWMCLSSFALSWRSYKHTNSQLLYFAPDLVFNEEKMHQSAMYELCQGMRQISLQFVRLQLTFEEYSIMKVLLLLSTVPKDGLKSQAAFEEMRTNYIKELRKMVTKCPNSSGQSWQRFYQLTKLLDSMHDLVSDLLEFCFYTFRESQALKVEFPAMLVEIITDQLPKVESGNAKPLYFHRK

A549 [11] = experiment: Effective concentration for inhibition of interleukin-6 in human A549 lung carcinoma cell line using 65% radiolabeled Dexamethasone; assay type: functional, cell-based
Progesterone receptor = target: T3, Progesterone receptor (Homo sapiens, UniProt P06401); experiment: Binding affinity for human progesterone receptor
T3 sequence (P06401 whole entry): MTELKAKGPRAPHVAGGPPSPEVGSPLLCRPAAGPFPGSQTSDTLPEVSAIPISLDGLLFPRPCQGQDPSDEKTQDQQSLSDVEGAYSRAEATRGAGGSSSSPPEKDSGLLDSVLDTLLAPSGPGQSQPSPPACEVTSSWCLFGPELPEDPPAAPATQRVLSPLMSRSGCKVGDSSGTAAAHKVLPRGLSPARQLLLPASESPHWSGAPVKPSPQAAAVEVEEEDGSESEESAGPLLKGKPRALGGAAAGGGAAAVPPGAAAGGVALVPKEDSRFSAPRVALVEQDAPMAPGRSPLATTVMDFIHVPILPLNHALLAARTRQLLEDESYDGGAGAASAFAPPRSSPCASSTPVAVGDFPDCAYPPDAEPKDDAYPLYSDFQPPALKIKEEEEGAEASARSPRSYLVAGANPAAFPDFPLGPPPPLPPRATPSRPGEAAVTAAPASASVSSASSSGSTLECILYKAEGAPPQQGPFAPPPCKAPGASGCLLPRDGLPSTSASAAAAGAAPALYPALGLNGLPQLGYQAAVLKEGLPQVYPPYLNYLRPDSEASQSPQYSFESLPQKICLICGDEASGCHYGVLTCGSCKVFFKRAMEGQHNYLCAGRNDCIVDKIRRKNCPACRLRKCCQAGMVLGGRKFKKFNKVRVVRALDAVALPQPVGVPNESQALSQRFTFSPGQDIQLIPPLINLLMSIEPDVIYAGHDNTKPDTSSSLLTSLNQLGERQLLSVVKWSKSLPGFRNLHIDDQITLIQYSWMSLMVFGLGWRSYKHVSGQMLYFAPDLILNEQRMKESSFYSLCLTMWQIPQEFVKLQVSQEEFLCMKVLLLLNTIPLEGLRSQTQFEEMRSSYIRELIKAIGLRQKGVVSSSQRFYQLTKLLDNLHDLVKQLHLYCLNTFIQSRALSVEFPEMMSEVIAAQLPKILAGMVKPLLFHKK

Estrogen receptor beta = Estrogen receptor beta (Homo sapiens, UniProt Q92731); experiment: Binding affinity for human estrogen receptor beta
Chain of Estrogen receptor beta (Q92731 whole entry): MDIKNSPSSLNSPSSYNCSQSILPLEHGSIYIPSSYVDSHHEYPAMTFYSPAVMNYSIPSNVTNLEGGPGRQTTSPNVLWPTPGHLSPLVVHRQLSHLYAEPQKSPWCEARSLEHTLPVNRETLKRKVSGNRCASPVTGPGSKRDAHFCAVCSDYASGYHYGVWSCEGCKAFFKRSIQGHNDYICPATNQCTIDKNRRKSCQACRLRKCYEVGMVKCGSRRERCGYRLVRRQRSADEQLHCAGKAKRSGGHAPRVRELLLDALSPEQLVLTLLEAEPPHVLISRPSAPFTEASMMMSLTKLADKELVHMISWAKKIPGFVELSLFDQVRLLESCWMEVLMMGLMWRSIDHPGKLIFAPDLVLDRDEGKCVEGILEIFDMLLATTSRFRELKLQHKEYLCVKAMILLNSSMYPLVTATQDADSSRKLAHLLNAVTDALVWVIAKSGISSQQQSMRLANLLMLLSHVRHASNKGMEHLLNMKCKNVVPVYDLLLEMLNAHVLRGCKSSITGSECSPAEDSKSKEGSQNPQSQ

Mus musculus [12] = organism: Mus musculus; experiment: Effective concentration required for inhibition of interleukin-6 in mouse thioglycolate-elicited peritoneal exudate cell line using 81% radiolabeled Dexamethasone; assay type: functional
Estrogen receptor = target: T4, Estrogen receptor (Homo sapiens, UniProt P03372); experiment: Binding affinity for human estrogen receptor alpha
T4 sequence (P03372 whole entry): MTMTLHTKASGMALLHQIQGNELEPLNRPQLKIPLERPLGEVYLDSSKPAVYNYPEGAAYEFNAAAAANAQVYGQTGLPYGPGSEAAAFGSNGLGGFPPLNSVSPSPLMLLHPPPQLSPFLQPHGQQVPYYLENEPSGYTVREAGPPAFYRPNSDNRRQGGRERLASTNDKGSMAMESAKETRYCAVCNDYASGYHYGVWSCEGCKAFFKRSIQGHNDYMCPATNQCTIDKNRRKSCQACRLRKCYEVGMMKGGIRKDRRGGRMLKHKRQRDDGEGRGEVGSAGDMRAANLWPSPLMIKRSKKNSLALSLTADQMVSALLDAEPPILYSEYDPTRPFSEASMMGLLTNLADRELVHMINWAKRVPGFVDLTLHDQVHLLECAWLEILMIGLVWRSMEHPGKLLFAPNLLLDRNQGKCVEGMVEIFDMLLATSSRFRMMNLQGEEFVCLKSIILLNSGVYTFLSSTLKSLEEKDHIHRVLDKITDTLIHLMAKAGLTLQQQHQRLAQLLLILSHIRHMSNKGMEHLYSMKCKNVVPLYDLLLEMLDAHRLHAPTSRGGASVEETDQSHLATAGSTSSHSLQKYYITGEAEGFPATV

Mus musculus [13] = organism: Mus musculus; experiment: Effective concentration required for inhibition of interleukin-6 in mouse thioglycolate-elicited peritoneal exudate cell line using 95% radiolabeled Dexamethasone; assay type: functional
A549 [14] = experiment: Effective concentration required for inhibition of interleukin-6 in human A549 lung carcinoma cell line using 102% radiolabeled Dexamethasone; assay type: functional, cell-based
HepG2 = experiment: Effective concentration required for induction of tyrosine aminotransferase in human HepG2 cells using 81% radiolabeled Dexamethasone; assay type: functional, cell-based
[15] = Effective concentration required for induction of glutamine synthetase in human skeletal muscle cells using 97% radiolabeled Dexamethasone; assay type: functional
A549 [16] = experiment: Effective concentration for inhibition of interleukin-6 in human A549 lung carcinoma cell line using 69% radiolabeled Dexamethasone; assay type: functional, cell-based

pEC50 (A549 [1]): 7.72
pEC50 (Mus musculus [2]): 7.11
pIC50 (Glucocorticoid receptor [3]): 8.26
SMILES: CC[C@H]1OC2(CCCC3=Cc4c(cnn4-c4ccc(F)cc4)C[C@@]32C)O[C@@H]1CC

pIC50 (Glucocorticoid receptor [3]): 7.31
SMILES: C=C[C@H]1CO[C@@]2(CCC3=Cc4c(cnn4-c4ccc(F)cc4)C[C@@]32C)O1

pIC50 (Glucocorticoid receptor [3]): 7.55
pEC50 (A549 [4]): 7.92
SMILES: CC1(C)COC2(CCC3=Cc4c(cnn4-c4ccc(F)cc4)C[C@@]32C)OC1

pIC50 (Glucocorticoid receptor [3]): 7.92
SMILES: C[C@]12Cc3cnn(-c4ccc(F)cc4)c3C=C1CC[C@]21OC[C@H](c2ccccc2)O1

pEC50 (Mus musculus [5]): 7.44
pIC50 (Glucocorticoid receptor [3]): 8.18
pEC50 (A549 [6]): 7.62
pEC50 (Mus musculus [7]): 7.44
SMILES: CC[C@H]1OC2(CCC3=Cc4c(cnn4-c4ccc(F)cc4)C[C@@]32C)O[C@@H]1CC
Inhibition (Mus musculus [8]): 97.8%

pIC50 (Glucocorticoid receptor [3]): 8.00
SMILES: C[C@H]1OC2(CCCC3=Cc4c(cnn4-c4ccc(F)cc4)C[C@@]32C)O[C@@H]1C

SMILES: C=C[C@H]1OC2(CCCC3=Cc4c(cnn4-c4ccc(F)cc4)C[C@@]32C)O[C@@H]1C=C
pIC50 (Glucocorticoid receptor [9]): 8.92
pIC50 [10]: 5.13
pEC50 (A549 [11]): 8.28
pIC50 (Progesterone receptor): < 6.00
pIC50 (Estrogen receptor beta): < 5.00
pIC50 (Glucocorticoid receptor [3]): 8.92
pEC50 (Mus musculus [12]): 8.06
pIC50 (Estrogen receptor): < 5.00

pEC50 (Mus musculus [13]): 8.24
pEC50 (A549 [14]): 8.35
pEC50 (HepG2): 6.68
pIC50 (Glucocorticoid receptor [3]): 7.86
pEC50 [15]: 7.49
SMILES: C[C@]12Cc3cnn(-c4ccc(F)cc4)c3C=C1CCC21OCCO1 (stereo in doubt; 2)

pIC50 (Glucocorticoid receptor [9]): 7.14
pIC50 [10]: < 5.00
pIC50 (Progesterone receptor): < 6.00
pIC50 (Estrogen receptor beta): < 5.00
pIC50 (Glucocorticoid receptor [3]): 7.14
pEC50 (A549 [16]): 7.55
pIC50 (Estrogen receptor): < 5.00
SMILES: C[C@]12Cc3cnn(-c4ccc(F)cc4)c3C=C1CCC21OCCO1 (stereo in doubt; 13)

pIC50 (Glucocorticoid receptor [3]): 8.08
SMILES: C[C@@H]1C[C@@H](C)OC2(CCC3=Cc4c(cnn4-c4ccc(F)cc4)C[C@@]32C)O1 (stereo in doubt; form 2)
